Patent US10351525B2, “Beta lactamase inhibitors” (Oxford University Innovation Limited, priority 2014, dated 2019)
pIC50: −log10 of the molar value.

What was measured:
[1] = biological target: T1, VIM-2 (Escherichia coli, UniProt Q5U7L7); details: Spicer et al, NIH Probe Reports 2010, read-out: IC50 against VIM-2, reported value; cited from earlier work
T1 construct: made in house; host or cells: Escherichia coli

[2] = test system: P. aeruginosa 14 (14); assay: MIC of MEM with and without ML302F (1:8), VIM-2 producer; type: cell-based; details: Pseudomonas aeruginosa; P. aeruginosa 14 (14) (VIM-2); MEM alone or with ML302F (1:8)
Experimental: (§1) In a further study, antimicrobial activities of MEM and ML302F alone and in combination were assessed in-vitro against 31 VIM-producing clinical isolates.

[3] = test system: P. aeruginosa 11 (13); assay: as above; type: cell-based; details: Pseudomonas aeruginosa; P. aeruginosa 11 (13) (VIM-2); MEM alone or with ML302F (1:8)
Experimental: as §1

[4] = test system: P. aeruginosa 30; assay: as above; type: cell-based; details: Pseudomonas aeruginosa; P. aeruginosa 30 (VIM-2); MEM alone or with ML302F (1:8)
Experimental: as §1

[5] = test system: P. aeruginosa 11 (14); assay: as above; type: cell-based; details: Pseudomonas aeruginosa
Experimental: as §1

[6] = test system: P. aeruginosa GR64; assay: as above; type: cell-based; details: Pseudomonas aeruginosa; P. aeruginosa GR64 (VIM-2); MEM alone or with ML302F (1:8)
Experimental: as §1

[7] = test system: P. aeruginosa 12 (14); assay: as above; type: cell-based; details: Pseudomonas aeruginosa
Experimental: as §1

[8] = test system: P. aeruginosa GR62; assay: as above; type: cell-based; details: Pseudomonas aeruginosa; P. aeruginosa GR62 (VIM-2); MEM alone or with ML302F (1:8)
Experimental: as §1

[9] = test system: P. aeruginosa 13 (14); assay: as above; type: cell-based; details: Pseudomonas aeruginosa; P. aeruginosa 13 (14) (VIM-2); MEM alone or with ML302F (1:8)
Experimental: as §1

[10] = test system: P. aeruginosa 15 (14); assay: as above; type: cell-based; details: Pseudomonas aeruginosa; P. aeruginosa 15 (14) (VIM-2); MEM alone or with ML302F (1:8)
Experimental: as §1

[11] = test system: P. aeruginosa 50; assay: as above; type: cell-based; details: Pseudomonas aeruginosa; P. aeruginosa 50 (VIM-2); MEM alone or with ML302F (1:8)
Experimental: as §1

[12] = test system: P. aeruginosa 47; assay: as above; type: cell-based; details: Pseudomonas aeruginosa; P. aeruginosa 47 (VIM-2); MEM alone or with ML302F (1:8)
Experimental: as §1

[13] = test system: P. aeruginosa 16 (14); assay: as above; type: cell-based; details: Pseudomonas aeruginosa; P. aeruginosa 16 (14) (VIM-2); MEM alone or with ML302F (1:8)
Experimental: as §1

[14] = test system: P. aeruginosa 9 (13); assay: as above; type: cell-based; details: Pseudomonas aeruginosa
Experimental: as §1

[15] = test system: P. aeruginosa 3 (13); assay: as above; type: cell-based; details: Pseudomonas aeruginosa; P. aeruginosa 3 (13) (VIM-2); MEM alone or with ML302F (1:8)
Experimental: as §1

[16] = test system: P. aeruginosa 6 (14); assay: as above; type: cell-based; details: Pseudomonas aeruginosa
Experimental: as §1

[17] = test system: P. aeruginosa 8 (13); assay: as above; type: cell-based; details: Pseudomonas aeruginosa
Experimental: as §1

[18] = test system: P. aeruginosa GR57; assay: as above; type: cell-based; details: Pseudomonas aeruginosa; P. aeruginosa GR57 (VIM-2); MEM alone or with ML302F (1:8)
Experimental: as §1

[19] = test system: P. aeruginosa 27 (14); assay: as above; type: cell-based; details: Pseudomonas aeruginosa; P. aeruginosa 27 (14) (VIM-2); MEM alone or with ML302F (1:8)
Experimental: as §1

[20] = test system: P. aeruginosa GR58; assay: as above; type: cell-based; details: Pseudomonas aeruginosa; P. aeruginosa GR58 (VIM-2); MEM alone or with ML302F (1:8)
Experimental: as §1

[21] = test system: K. pneumoniae NCTC 5055 (wt); assay: Meropenem MIC with and without inhibitor; type: cell-based; details: Klebsiella pneumoniae, NCTC5055, read-out: Meropenem MIC in the absence of inhibitor
Experimental: (§2) Further studies were carried out to determine if ML302F/ML302 potentiates β-lactam antibiotic activity in clinically derived strains containing IMP-1, IMP-4, VIM-4 or NDM-1, which are the most commonly observed MBLs in clinical isolates. All strains producing MBLs were confirmed as resistant to meropenem at the Clinical and Laboratory Standards Institute (U.S.A.) defined breakpoint of 8 μg/mL for Enterobacteriace (see Table 2 below). The minimum inhibitory concentration (MIC) of meropenem against wildtype and MBL producing Escherichia coli and Klebsiella pneumoniae strains was determined with and without increasing concentrations of ML302 or ML302F. Clinical and Laboratory Standards Institute. 2012. Methods for dilution antimicrobial susceptibility tests for bacteria that grow aerobically; 9th ed. Approved standard M07-A9. CLSI, Wayne, Pa.; and Clinical and Laboratory Standards Institute. 2012. Performance standards for antimicrobial susceptibility testing; 22nd informational supplement M100-S22. CLSI, Wayne, Pa.

[22] = test system: E. coli 25722 (wt); assay: Meropenem MIC with and without inhibitor; type: cell-based; details: Escherichia coli, read-out: Meropenem MIC in the absence of inhibitor
Experimental: as §2

[23] = test system: K. pneumoniae 196; assay: MIC of MEM with and without ML302F (1:8), VIM-4 producer; type: cell-based; details: Klebsiella pneumoniae; K. pneumoniae 196 (VIM-4); MEM alone or with ML302F (1:8)
Experimental: as §1

[24] = test system: K. pneumoniae 128; assay: as above; type: cell-based; details: Klebsiella pneumoniae; K. pneumoniae 128 (VIM-4); MEM alone or with ML302F (1:8)
Experimental: as §1

[25] = test system: K. oxytoca 126; assay: as above; type: cell-based; details: Klebsiella oxytoca; K. oxytoca 126 (VIM-4); MEM alone or with ML302F (1:8)
Experimental: as §1

[26] = test system: K. oxytoca 95; assay: as above; type: cell-based; details: Klebsiella oxytoca; K. oxytoca 95 (VIM-4); MEM alone or with ML302F (1:8)
Experimental: as §1

[27] = test system: Galleria mellonella wax moth larvae; assay: In vivo toxicity in wax moth larvae model; details: doses up to 80 mg/kg

**Q.** With `CN1CCN(NC(=O)CN2C(=O)C(=Cc3c(Cl)ccc(Cl)c3Cl)SC2=S)CC1` (mixture of isomers) [ML302, N-(4-Methylpiperazin-1-yl)-2-(4-oxo-2-thioxo-5-(2,3,6-trichlorobenzylidene)thiazolidin-3-yl)acetamide] as the molecule, how does the pIC50 [1] read?
**A.** The pIC50 was 6.26.

**Q.** What does the source list for `C[C@@H](O)[C@H]1C(=O)N2C(C(=O)O)=C(S[C@@H]3CN[C@H](C(=O)N(C)C)C3)[C@H](C)[C@H]12` [Meropenem, meropenem]?
**A.** MIC [2]: 64 µg/mL; MIC [3]: 32 µg/mL; MIC [4]: 64 µg/mL; MIC [5]: 128 µg/mL; MIC [6]: 32 µg/mL; MIC [7]: 128 µg/mL; MIC [8]: 32 µg/mL; MIC [9]: 32 µg/mL; MIC [10]: 64 µg/mL; MIC [11]: 32 µg/mL; MIC [12]: 32 µg/mL; MIC [13]: 64 µg/mL; MIC [14]: 128 µg/mL; MIC [15]: 64 µg/mL; MIC [16]: 128 µg/mL; MIC [17]: 128 µg/mL; MIC [18]: 32 µg/mL; MIC [19]: 64 µg/mL; MIC [20]: 32 µg/mL; MIC [21]: ≤ 0.25 µg/mL; MIC [22]: ≤ 0.25 µg/mL; MIC [23]: 16 µg/mL; MIC [24]: 4 µg/mL; MIC [25]: 32 µg/mL; MIC [26]: 32 µg/mL

**Q.** For `O=C(O)C(S)=Cc1c(Cl)ccc(Cl)c1Cl` (racemic) [ML302F, 2-Mercapto-3-(2,3,6-trichlorophenyl)acrylic acid], which In vivo toxicity ([27]; G. mellonella, injection) is on record?
**A.** Its In vivo toxicity is “non-toxic”.

**Q.** What about the “Survival of all larvae” value ([27]; injection into hemocoel, at 96 hrs) of the same molecule?
**A.** The value was 100%.
